Test results taken from ChEMBL document CHEMBL2073857, “Increased sensitivity to vincristine of MDR cells by the leukotriene D4 receptor antagonist, ONO-1078” (Cancer Lett, 1998).

Target: Multidrug resistance-associated protein 1 (MRP1) (Homo sapiens, UniProt P33527)
Assay: TP_TRANSPORTER: inhibition of LTC4 uptake (LTC4: 0.00134 uM, ONO-1078: 100 uM) in membrane vesicles from CV60 cells
Assay type: functional, cell membranes, Membrane vesicle
Parameters: scale not given: the % may be the effect or the level left
Details: probe LTC4 (0.00134 uM), read-out: Activity

Chain of Multidrug resistance-associated protein 1 (MRP1) (P33527 whole entry): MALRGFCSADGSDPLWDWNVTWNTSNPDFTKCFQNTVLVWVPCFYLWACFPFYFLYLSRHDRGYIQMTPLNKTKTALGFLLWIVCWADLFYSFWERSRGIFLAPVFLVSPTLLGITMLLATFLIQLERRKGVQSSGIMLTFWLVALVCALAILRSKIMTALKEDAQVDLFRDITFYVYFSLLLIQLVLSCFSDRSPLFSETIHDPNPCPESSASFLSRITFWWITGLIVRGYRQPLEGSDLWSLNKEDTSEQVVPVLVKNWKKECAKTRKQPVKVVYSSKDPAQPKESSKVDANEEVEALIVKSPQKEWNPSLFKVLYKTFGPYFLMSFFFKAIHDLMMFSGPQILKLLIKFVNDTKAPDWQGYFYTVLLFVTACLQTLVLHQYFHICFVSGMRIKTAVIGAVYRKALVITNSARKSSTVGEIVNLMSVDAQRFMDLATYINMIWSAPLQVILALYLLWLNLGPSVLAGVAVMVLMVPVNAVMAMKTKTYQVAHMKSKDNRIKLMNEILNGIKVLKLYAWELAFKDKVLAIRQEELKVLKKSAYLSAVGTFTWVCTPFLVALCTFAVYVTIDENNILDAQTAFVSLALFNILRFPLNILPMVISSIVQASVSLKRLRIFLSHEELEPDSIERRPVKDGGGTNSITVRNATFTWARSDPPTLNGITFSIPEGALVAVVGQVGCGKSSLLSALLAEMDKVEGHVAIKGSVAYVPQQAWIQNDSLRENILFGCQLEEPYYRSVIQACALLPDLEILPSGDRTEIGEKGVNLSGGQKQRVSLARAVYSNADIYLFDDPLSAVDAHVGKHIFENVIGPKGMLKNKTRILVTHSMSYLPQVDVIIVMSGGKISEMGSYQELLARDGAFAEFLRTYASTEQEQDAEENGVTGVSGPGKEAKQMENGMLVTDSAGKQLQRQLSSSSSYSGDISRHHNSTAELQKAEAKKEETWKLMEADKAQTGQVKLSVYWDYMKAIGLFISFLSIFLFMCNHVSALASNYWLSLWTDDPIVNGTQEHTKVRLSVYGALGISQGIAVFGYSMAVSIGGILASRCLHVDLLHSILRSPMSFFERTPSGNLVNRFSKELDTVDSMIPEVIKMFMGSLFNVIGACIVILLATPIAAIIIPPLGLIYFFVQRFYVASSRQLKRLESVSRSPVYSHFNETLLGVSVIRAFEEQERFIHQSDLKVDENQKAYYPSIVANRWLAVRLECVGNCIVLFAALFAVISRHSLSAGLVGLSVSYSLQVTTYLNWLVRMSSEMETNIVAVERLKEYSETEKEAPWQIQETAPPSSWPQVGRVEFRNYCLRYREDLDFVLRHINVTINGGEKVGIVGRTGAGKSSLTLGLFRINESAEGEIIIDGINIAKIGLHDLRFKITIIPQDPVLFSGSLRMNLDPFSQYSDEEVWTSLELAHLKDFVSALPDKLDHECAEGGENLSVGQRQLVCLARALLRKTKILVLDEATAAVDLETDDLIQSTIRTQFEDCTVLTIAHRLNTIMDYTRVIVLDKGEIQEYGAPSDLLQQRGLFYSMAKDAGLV

`O=C(Nc1cccc2c(=O)cc(-c3nnn[nH]3)oc12)c1ccc(OCCCCc2ccccc2)cc1` [PRANLUKAST] was tested, and the activity at 100 µM was 55%.
